By IC50 is commonly meant the concentration that inhibits the measured activity by half.

The test system of the first test is KM12 cells. Description: Cell viability assay (CellTiter-Glo) in KM12 cells. It counts as cell-based. The following applies: Homo sapiens, 72 h; Table 2; KM12 cell viability, CellTiter-Glo, 3 days; read-out: IC50. (ATP-based viability assays read luminescence as a measure of living cells.)
As for `Cc1ncsc1-c1ccc(CNC(=O)[C@@H]2C[C@@H](O)CN2C(=O)[C@@H](NC(=O)CCCCCC(=O)N2CCN(c3ccc(C(=O)Nc4n[nH]c5ccc(Cc6cc(F)cc(F)c6)cc45)c(NC4CCOCC4)c3)CC2)C(C)(C)C)cc1` [CPD-047, (2S,4R)-1-((S)-2-(7-(4-(4-((5-(3,5-difluorobenzyl)-1H-indazol-3-yl)carbamoyl)-3-((tetrahydro-2H-pyran-4-yl)amino)phenyl)piperazin-1-yl)-7-oxoheptanamido)-3,3-dimethylbutanoyl)-4-hydroxy-N-(4-(4-methylthiazol-5-yl)benzyl)pyrrolidine-2-carboxamide], the half-maximal inhibitory concentration (IC50) came out at 94 nM. Take `O=C1CCC(N2C(=O)c3cccc(NCCC(=O)N4CCN(c5ccc(C(=O)Nc6n[nH]c7ccc(Cc8cc(F)cc(F)c8)cc67)c(NC6CCOCC6)c5)CC4)c3C2=O)C(=O)N1` (stereo not shown) [CPD-051, N-(5-(3,5-difluorobenzyl)-1H-indazol-3-yl)-4-(4-(3-((2-(2,6-dioxopiperidin-3-yl)-1,3-dioxoisoindolin-4-yl)amino)propanoyl)piperazin-1-yl)-2-((tetrahydro-2H-pyran-4-yl)amino)benzamide]: the IC50 came out at 11 nM.

Take `Cc1ncsc1-c1ccc(CNC(=O)[C@@H]2C[C@@H](O)CN2C(=O)[C@@H](NC(=O)CCCC(=O)N2CCN(c3cccc(-c4cnc5ccc(N6CCC[C@@H]6c6cccc(F)c6)nn45)n3)CC2)C(C)(C)C)cc1` [CPD-012, (2S,4R)-1-((S)-2-(5-(4-(6-(6-((R)-2-(3-Fluorophenyl)pyrrolidin-1-yl)imidazo[1,2-b]pyridazin-3-yl)pyridin-2-yl)piperazin-1-yl)-5-oxopentanamido)-3,3-dimethylbutanoyl)-4-hydroxy-N-(4-(4-methylthiazol-5-yl)benzyl)pyrrolidine-2-carboxamide]: the IC50 is more than 1000 nM. For the molecule `Cc1ncsc1-c1ccc(CNC(=O)[C@@H]2C[C@@H](O)CN2C(=O)[C@@H](NC(=O)CCOCCOCCOCCC(=O)N2CCN(c3ccc(C(=O)Nc4n[nH]c5ccc(Cc6cc(F)cc(F)c6)cc45)c(NC4CCOCC4)c3)CC2)C(C)(C)C)cc1` [CPD-039, (2S,4R)-1-((S)-2-(tert-butyl)-16-(4-(4-((5-(3,5-Difluorobenzyl)-1H-indazol-3-yl)carbamoyl)-3-((tetrahydro-2H-pyran-4-yl)amino)phenyl)piperazin-1-yl)-4,16-dioxo-7,10,13-trioxa-3-azahexadecanoyl)-4-hydroxy-N-(4-(4-methylthiazol-5-yl)benzyl)pyrrolidine-2-carboxamide], the IC50 amounted to 222 nM.

Still in this test, the particulars now being: Homo sapiens, 72 h; Table 3; KM12 cell viability, CellTiter-Glo, 3 days; read-out: IC50.
Take `O=C(CN1CCN(c2ccc(C(=O)Nc3n[nH]c4ccc(Cc5cc(F)cc(F)c5)cc34)c(NC3CCOCC3)c2)CC1)NCCOCCOCCOCCOCCNc1ccc2c(c1)C(=O)N(C1CCC(=O)NC1=O)C2=O` (stereo not shown) [TR-160, N-(5-(3,5-Difluorobenzyl)-1H-indazol-3-yl)-4-(4-(17-((2-(2,6-dioxopiperidin-3-yl)-1,3-dioxoisoindolin-5-yl)amino)-2-oxo-6,9,12,15-tetraoxa-3-azaheptadecyl)piperazin-1-yl)-2-((tetrahydro-2H-pyran-4-yl)amino)benzamide]: the half-maximal inhibitory concentration (IC50) amounted to 4.8 nM. In the case of `O=C(CN1CCN(c2ccc(C(=O)Nc3n[nH]c4ccc(Cc5cc(F)cc(F)c5)cc34)c(NC3CCOCC3)c2)CC1)NCCCCCNc1cccc2c1C(=O)N(C1CCC(=O)NC1=O)C2=O` (stereo not shown) [TR-149, N-(5-(3,5-Difluorobenzyl)-1H-indazol-3-yl)-4-(4-(2-((5-((2-(2,6-dioxopiperidin-3-yl)-1,3-dioxoisoindolin-4-yl)amino)pentyl)amino)-2-oxoethyl)piperazin-1-yl)-2-((tetrahydro-2H-pyran-4-yl)amino)benzamide], the IC50 amounted to 4.6 nM. Regarding `O=C1CCC(N2C(=O)c3ccc(NCC(=O)N4CCN(c5ccc(C(=O)Nc6n[nH]c7ccc(Cc8cc(F)cc(F)c8)cc67)c(NC6CCOCC6)c5)CC4)cc3C2=O)C(=O)N1` (stereo not shown) [TR-144, N-(5-(3,5-Difluorobenzyl)-1H-indazol-3-yl)-4-(4-((2-(2,6-dioxopiperidin-3-yl)-1,3-dioxoisoindolin-5-yl)glycyl)piperazin-1-yl)-2-((tetrahydro-2H-pyran-4-yl)amino)benzamide], the half-maximal inhibitory concentration (IC50) came out at 2.2 nM.

`O=C1CCC(N2C(=O)c3ccc(NCCC4CCN(c5cccc(-c6cnc7ccc(N8CCC[C@@H]8c8cccc(F)c8)nn67)n5)CC4)cc3C2=O)C(=O)N1` (stereo partly drawn) [TR-180, 2-(2,6-Dioxopiperidin-3-yl)-5-((2-(1-(6-(6-((R)-2-(3-fluorophenyl)pyrrolidin-1-yl)imidazo[1,2-b]pyridazin-3-yl)pyridin-2-yl)piperidin-4-yl)ethyl)amino)isoindoline-1,3-dione]: the IC50 is 33.8 nM. Consider `O=C(CN1CCN(c2cccc(-c3cnc4ccc(N5CCC[C@@H]5c5cccc(F)c5)nn34)n2)CC1)NCCCCCCNc1ccc2c(c1)C(=O)N(C1CCC(=O)NC1=O)C2=O` (stereo partly drawn) [TR-128, N-(6-((2-(2,6-dioxopiperidin-3-yl)-1,3-dioxoisoindolin-5-yl)amino)hexyl)-2-(4-(6-(6-((R)-2-(3-fluorophenyl)pyrrolidin-1-yl)imidazo[1,2-b]pyridazin-3-yl)pyridin-2-yl)piperazin-1-yl)acetamide], for which the half-inhibitory concentration (IC50) amounted to 3.3 nM. Regarding `O=C1CCC(N2C(=O)c3ccc(N4CCN(c5cccc(-c6cnc7ccc(N8CCC[C@@H]8c8cccc(F)c8)nn67)n5)CC4)cc3C2=O)C(=O)N1` (stereo partly drawn) [TR-170, 2-(2,6-Dioxopiperidin-3-yl)-5-(4-(6-(6-((R)-2-(3-fluorophenyl)pyrrolidin-1-yl)imidazo[1,2-b]pyridazin-3-yl)pyridin-2-yl)piperazin-1-yl)isoindoline-1,3-dione], the IC50 is 15.1 nM. For `O=C(CN1CCN(c2cccc(-c3cnc4ccc(N5CCC[C@@H]5c5cccc(F)c5)nn34)n2)CC1)NCCCCCCCNc1cccc2c1C(=O)N(C1CCC(=O)NC1=O)C2=O` (stereo partly drawn) [TR-110, N-(7-((2-(2,6-dioxopiperidin-3-yl)-1,3-dioxoisoindolin-4-yl)amino)heptyl)-2-(4-(6-(6-((R)-2-(3-fluorophenyl)pyrrolidin-1-yl)imidazo[1,2-b]pyridazin-3-yl)pyridin-2-yl)piperazin-1-yl)acetamide], the IC50 was 35.9 nM.

As for `O=C(CN1CCN(c2ccc(C(=O)Nc3n[nH]c4ccc(Cc5cc(F)cc(F)c5)cc34)c(NC3CCOCC3)c2)CC1)NCCOCCOCCNc1ccc2c(c1)C(=O)N(C1CCC(=O)NC1=O)C2=O` (stereo not shown) [TR-162, N-(5-(3,5-Difluorobenzyl)-1H-indazol-3-yl)-4-(4-(2-((2-(2-(2-((2-(2,6-dioxopiperidin-3-yl)-1,3-dioxoisoindolin-5-yl)amino)ethoxy)ethoxy)ethyl)amino)-2-oxoethyl)piperazin-1-yl)-2-((tetrahydro-2H-pyran-4-yl)amino)benzamide], the 50% inhibitory concentration (IC50) came out at 4.1 nM. For `OC1CCN(c2cc(-c3cccc(-c4cnc5ccc(N6CCC[C@@H]6c6cccc(F)c6)nn45)n3)ccn2)CC1` [GNF-8625, reference compound], the IC50 stood at 46.7 nM. With `O=C(CN1CCN(c2cccc(-c3cnc4ccc(N5CCC[C@@H]5c5cccc(F)c5)nn34)n2)CC1)NCCOCCOCCNc1ccc2c(c1)C(=O)N(C1CCC(=O)NC1=O)C2=O` (stereo partly drawn) [TR-134, N-(2-(2-(2-((2-(2,6-dioxopiperidin-3-yl)-1,3-dioxoisoindolin-5-yl)amino)ethoxy)ethoxy)ethyl)-2-(4-(6-(6-((R)-2-(3-fluorophenyl)pyrrolidin-1-yl)imidazo[1,2-b]pyridazin-3-yl)pyridin-2-yl)piperazin-1-yl)acetamide], the concentration for half-maximal inhibition (IC50) is 5.6 nM.

As to `O=C(CN1CCN(c2cccc(-c3cnc4ccc(N5CCC[C@@H]5c5cccc(F)c5)nn34)n2)CC1)NCCCCNc1cccc2c1C(=O)N(C1CCC(=O)NC1=O)C2=O` (stereo partly drawn) [TR-107, N-(4-((2-(2,6-dioxopiperidin-3-yl)-1,3-dioxoisoindolin-4-yl)amino)butyl)-2-(4-(6-(6-((R)-2-(3-fluorophenyl)pyrrolidin-1-yl)imidazo[1,2-b]pyridazin-3-yl)pyridin-2-yl)piperazin-1-yl)acetamide], the IC50 stood at 8.4 nM. On to `O=C1CCC(N2C(=O)c3ccc(NCCCCCCC(=O)N4CCN(c5cccc(-c6cnc7ccc(N8CCC[C@@H]8c8cccc(F)c8)nn67)n5)CC4)cc3C2=O)C(=O)N1` (stereo partly drawn) [TR-117, 2-(2,6-Dioxopiperidin-3-yl)-5-((7-(4-(6-(6-((R)-2-(3-fluorophenyl)pyrrolidin-1-yl)imidazo[1,2-b]pyridazin-3-yl)pyridin-2-yl)piperazin-1-yl)-7-oxoheptyl)amino)isoindoline-1,3-dione], for which the IC50 was 4.3 nM.

`O=C1CCC(N2C(=O)c3ccc(NCCCCCC(=O)N4CCN(c5ccc(C(=O)Nc6n[nH]c7ccc(Cc8cc(F)cc(F)c8)cc67)c(NC6CCOCC6)c5)CC4)cc3C2=O)C(=O)N1` (stereo not shown) [TR-138, N-(5-(3,5-Difluorobenzyl)-1H-indazol-3-yl)-4-(4-(6-((2-(2,6-dioxopiperidin-3-yl)-1,3-dioxoisoindolin-5-yl)amino)hexanoyl)piperazin-1-yl)-2-((tetrahydro-2H-pyran-4-yl)amino)benzamide]: the IC50 amounted to 31.1 nM.

The test is the same for the next values; noted with them: Homo sapiens, 72 h; Table 4; KM12 cell viability, CellTiter-Glo, 3 days; read-out: IC50.
`Cn1c(=O)n(C2CCC(=O)NC2=O)c2ccc(NCCN3CCN(c4cccc(-c5cnc6ccc(N7CCC[C@@H]7c7cccc(F)c7)nn56)n4)CC3)cc21` (stereo partly drawn) [TR-220, 3-(5-((2-(4-(6-(6-((R)-2-(3-Fluorophenyl)pyrrolidin-1-yl)imidazo[1,2-b]pyridazin-3-yl)pyridin-2-yl)piperazin-1-yl)ethyl)amino)-3-methyl-2-oxo-2,3-dihydro-1H-benzo[d]imidazol-1-yl)piperidine-2,6-dione]: the 50% inhibitory concentration (IC50) was 5.5 nM. As to `O=C1CCC(N2Cc3cc(C#CC4CCN(c5cccc(-c6cnc7ccc(N8CCC[C@@H]8c8cccc(F)c8)nn67)n5)CC4)ccc3C2=O)C(=O)N1` (stereo partly drawn) [TR-208, 3-(5-((1-(6-(6-((R)-2-(3-fluorophenyl)pyrrolidin-1-yl)imidazo [1,2-b]pyridazin-3-yl)pyridin-2-yl)piperidin-4-yl)ethynyl)-1-oxoisoindolin-2-yl)piperidine-2,6-dione], the concentration for half-maximal inhibition (IC50) worked out at 7 nM.

For the origin of these results see patent US12065442B2, “Tropomyosin receptor kinase (TRK) degradation compounds and methods of use” (Cullgen (Shanghai), Inc., priority 2018, dated 2024).
